Data from the supplement of paper PMC10933113.
Structures can show the parent of a compound that is named as a salt. ± gives the uncertainty stated by the source.

Tests used:
THP-1 = experiment: efficacy of IL-8 induction relative to DMSO (% activity); higher = stronger induction; conditions: exposure time: 18 h
[1] = tested on: cysteine peptide Ac-RFAACAA-COOH; experiment: AC50 of cysteine peptide concentration-response (direction given by sign of efficacy); higher = less potent; conditions: incubation time: 24 h
[2] = tested on: KeratinoSens (HaCaT ARE-luciferase) cells; experiment: cytotoxicity AC50 (CellTiter-Fluor viability); higher = less cytotoxic; conditions: exposure time: 24 h
[3] = tested on: KeratinoSens (HaCaT ARE-luciferase) cells; experiment: efficacy of ARE luciferase induction relative to DMSO (% activity over DMSO); higher = stronger induction; conditions: exposure time: 24 h
[4] = tested on: cysteine peptide Ac-RFAACAA-COOH; experiment: efficacy of cysteine peptide change (negative = depletion) (% activity); higher = less depletion; conditions: incubation time: 24 h
[5] = tested on: lysine peptide Ac-RFAAKAA-COOH; experiment: efficacy of lysine peptide change (negative = depletion) (% activity); higher = less depletion; conditions: incubation time: 24 h
[6] = tested on: KeratinoSens (HaCaT ARE-luciferase) cells; experiment: AC50 of Nrf2/ARE luciferase induction; higher = less potent; conditions: exposure time: 24 h

| SMILES | efficacy of IL-8 induction (THP-1) | AC50 [1] [µM] | cytotoxicity AC50 [2] [µM] | efficacy of ARE luciferase induction [3] | efficacy of cysteine peptide change [4] | efficacy of lysine peptide change [5] | AC50 of Nrf2/ARE luciferase induction [6] [µM] |
| --- | --- | --- | --- | --- | --- | --- | --- |
| C=CC(=O)OCCn1c(=O)n(CCOC(=O)C=C)c(=O)n(CCOC(=O)C=C)c1=O | 20.8 ± 5.9 | 7.11 ± 0.82 | 24.7 ± 9.8 | 47.2 ± 67 | -99.7 ± 6.5 | -0.37 ± 14 | – |
| COc1cc(C(C)C)c2c(c1)S(=O)(=O)N(COc1cc(=O)n3cccc(OCCN4CCCCC4)c3n1)C2=O | 54.6 ± 30 | – | – | 509 ± 320 | 17.7 ± 15 | -2.72 ± 25 | 12.6 |
| O=C(NS(=O)(=O)/C=C/c1ccccc1)c1ccc(F)cc1Cl | 0 | – | – | 82.9 ± 22 | 5 ± 8.7 | 67 ± 6.6 | 38.7 |
| O=C(NS(=O)(=O)/C=C/c1cccs1)c1ccc(F)cc1Br | 4.43 ± 7.7 | – | – | 56.2 ± 110 | -6.04 ± 5.4 | 49.7 ± 18 | 14.1 |
| O=C1C=CC(=O)c2ccccc21 [1,4-NAPHTHOQUINONE*] | 37.7 ± 15 | 0.53 ± 0.2 | 8.95 ± 1 | -40.2 ± 8.4 | -107 ± 5.1 | -25.7 ± 2.1 | – |
| O=C(O)c1cc(O)c2ccccc2c1O [1,4-dihydroxy-2-naphthoic acid*] | 31.2 ± 8.8 | 4.18 ± 2.3 | 13.7 ± 2.3 | -34 ± 5.3 | -105 ± 11 | -107 ± 3.6 | – |
| NC(=S)NC(N)=S [2,4-Dithiobiuret] | 15.5 ± 4.3 | 3.18 ± 0.37 | – | 59.4 ± 25 | -94.5 ± 8 | -0.11 ± 21 | – |
| COc1cc(C(C)(C)C)c(O)c(C(C)(C)C)c1 [2,6-Di-tert-butyl-4-methoxyphenol] | 0 | 43.4 ± 7.4 | – | 17.3 ± 33 | -96.8 ± 3.7 | 3.75 ± 13 | – |
| Cc1ccc(O)c(-n2nc3ccccc3n2)c1 [2-(2H-Benzotriazol-2-yl)-4-methylphenol] | 0 | – | – | 95.5 ± 93 | 3.66 ± 6.3 | -3.82 ± 16 | 22.4 |
| Nc1cc(Cl)ccc1O [2-Amino-4-chlorophenol] | 14 ± 3 | 2.44 ± 1.1 | 48.3 ± 3.1 | 60.7 ± 16 | -103 ± 8.1 | -22.2 ± 9 | – |
| Nc1nnc(-c2ccc([N+](=O)[O-])o2)o1 [2-Amino-5-(5-nitro-2-furyl)-1,3,4-oxadiazole] | 4.08 ± 7.1 | – | – | 45.2 ± 31 | -4.29 ± 3.9 | -11.9 ± 11 | 26.2 |
| Nc1ccc2cc3ccccc3cc2c1 [2-Aminoanthracene] | 22.1 ± 0.99 | 0.19 ± 0.07 | – | 25.1 ± 4.7 | -84.3 ± 8.4 | -21.2 ± 1.8 | – |
| Clc1ccc2c(c1)Nc1ccccc1S2 [2-Chlorophenothiazine] | 7.79 ± 8 | 4.03 ± 0.75 | – | 28.3 ± 36 | -90.5 ± 15 | -12.3 ± 2.6 | – |
| COc1ccccc1N [2-Methoxyaniline hydrochloride] | 0 | 45.5 ± 10 | – | 68 ± 63 | -74 ± 18 | -4.19 ± 7.3 | – |
| Cc1occc1S [2-Methyl-3-furanthiol] | 14 ± 8.6 | 10.6 ± 2.4 | – | 34.9 ± 23 | -117 ± 12 | -108 ± 8.9 | – |
| Nc1ccc2ccccc2c1 [2-Naphthylamine] | 5.33 ± 9.2 | 0.53 ± 0.23 | 70.8 | 111 ± 32 | -65.5 ± 4.2 | -10.1 ± 12 | – |

| SMILES | efficacy of IL-8 induction (THP-1) | AC50 [1] [µM] | cytotoxicity AC50 [2] [µM] | efficacy of ARE luciferase induction [3] | efficacy of cysteine peptide change [4] | efficacy of lysine peptide change [5] | AC50 of Nrf2/ARE luciferase induction [6] [µM] |
| --- | --- | --- | --- | --- | --- | --- | --- |
| N#Cc1nc(Cl)c(Cl)c(Cl)c1Cl [3,4,5,6-Tetrachloro-2-pyridinecarbonitrile] | 85.9 ± 32 | 66.8 ± 29 | 10 ± 3.6 | 38 ± 64 | -49.4 ± 8.4 | 43.7 ± 15 | – |
| Nc1cc(Cl)c(O)c(Cl)c1 [4-Amino-2,6-dichlorophenol] | 61.6 ± 34 | 0.27 ± 0.14 | – | 99.2 ± 100 | -93.8 ± 6.2 | -45.6 ± 7.5 | – |
| CC(C)(C)c1ccc(S)cc1 [4-tert-Butylbenzenethiol] | 16.3 ± 5.9 | 44.7 | – | 28 ± 17 | -88.2 | 10.3 ± 18 | – |
| Cc1ccc(N)cc1O [5-Amino-2-methylphenol] | 3.18 ± 5.5 | 33.1 ± 20 | – | 59.5 ± 26 | -77.2 ± 7.4 | -3.52 ± 14 | – |
| Oc1ccc2cc(SSc3ccc4cc(O)ccc4c3)ccc2c1 [6-Hydroxy-2-naphthyl disulfide] | 52.2 ± 9.7 | 0.36 ± 0.04 | – | 146 ± 38 | -97.3 ± 8 | -144 ± 8 | – |
| CC1=C(/C=C/C(C)=C\C=C\C(C)=C\C(=O)O)C(C)(C)CCC1 [9-cis Retinoic acid] | 4.41 ± 7.6 | 41.1 ± 17 | – | 47.6 ± 16 | -104 ± 23 | -19.7 ± 2.9 | – |
| CC1=C(/C=C/C(C)=C/C=C/C(C)=C/C=O)C(C)(C)CCC1 [13-cis-Retinal (Vitamin A aldehyde)] | 3.58 ± 6.2 | 38.7 ± 6.6 | – | -8.45 ± 12 | -71.2 ± 22 | 3.09 ± 20 | – |
| CC(C)=CCC/C(C)=C\CO [(2Z)-3,7-Dimethylocta-2,6-dien-1-ol] | 3.59 ± 6.2 | 62.8 ± 38 | – | 19 ± 27 | -76.1 ± 14 | 21.2 ± 7.3 | – |
| O=C1c2cccc(O)c2C(=O)c2c(O)cc(CO)cc21 [Aloe-emodin] | -5.38 ± 9.3 | 1.33 ± 0.83 | – | 35.9 ± 24 | -75.7 ± 21 | -80.7 ± 18 | – |
| Nc1cc(-c2ccncc2)c[nH]c1=O [Amrinone] | 11.6 ± 10 | 31 ± 7.8 | – | 11.6 ± 5.4 | -105 ± 8.9 | 2.29 ± 4 | – |
| NNCc1ccccc1 [BENZYLHYDRAZINE HYDROCHLORIDE] | 3.79 ± 6.6 | 35.6 ± 4.1 | – | 50.8 ± 24 | -43 ± 5.2 | – | – |
| O=[N+]([O-])c1ccc(O/N=C/c2cc(Br)c(O)c(Br)c2)c([N+](=O)[O-])c1 [Bromofenoxim] | 0 | 8.35 ± 4.5 | 34.2 ± 2.2 | 12.5 ± 12 | -97 ± 11 | 62.9 ± 22 | – |
| Oc1c(Br)cc(Br)c2cccnc12 [Broxyquinoline] | 55.7 ± 43 | 2.44 ± 1.8 | 4 ± 0.46 | -33.3 ± 3 | -69.9 ± 28 | -14.3 ± 14 | – |
| O=C1C(Cl)=C(Cl)C(=O)C(Cl)=C1Cl [Chloranil] | 25.9 ± 3.2 | 0.65 ± 0.34 | 28.2 | 32.8 ± 9.5 | -73.9 ± 2.3 | -124 ± 7.8 | – |
| ClC1=C(Cl)C2(Cl)C3C(Cl)C(Cl)CC3C1(Cl)C2(Cl)Cl (centres undefined) [Chlordane] | 49.6 ± 10 | 50.3 ± 5.8 | 41.4 ± 2.8 | -18.6 ± 53 | -56.1 ± 16 | -2.38 ± 11 | – |
| COP(=S)(OC)Oc1nc(Cl)c(Cl)cc1Cl [Chlorpyrifos-methyl] | 0 | 6.5 ± 1.8 | – | 29.7 ± 29 | -104.3 ± 0.97 | 32.7 ± 12 | – |
